Test results published in ChEMBL document CHEMBL3797052 (Eur J Med Chem, 2016).

Tests used:
[1] = Antiproliferative activity against human TK10 cells assessed as growth inhibition after 48 hrs by sulforhodamine B assay; format: functional; conditions: TK-10, 48 h; for CC50: read-out: LC50 (the source's name)
[2] = system: A498; assay: Antiproliferative activity against human A498 cells assessed as growth inhibition after 48 hrs by sulforhodamine B assay; format: functional; conditions: A498, 48 h
[3] = system: CCRF-CEM; assay: Antiproliferative activity against human CCRF-CEM cells assessed as cell growth at 10^-7 M after 48 hrs by sulforhodamine B assay; format: functional; conditions: read-out: Activity
[4] = Antiproliferative activity against human HL-60(TB) cells assessed as cell growth at 10^-7 M after 48 hrs by sulforhodamine B assay; format: functional; conditions: HL-60, 48 h, read-out: Activity
[5] = Antiproliferative activity against human COLO205 cells assessed as cell growth at 10^-7 M after 48 hrs by sulforhodamine B assay; format: functional; conditions: COLO 205, 48 h, read-out: Activity
[6] = system: KM12; assay: Antiproliferative activity against human KM12 cells assessed as cell growth at 10^-7 M after 48 hrs by sulforhodamine B assay; format: functional; conditions: KM12, 48 h, read-out: Activity
[7] = system: T47D; assay: Antiproliferative activity against human T47D cells assessed as cell growth at 10^-6 M after 48 hrs by sulforhodamine B assay; format: functional; conditions: read-out: Activity
[8] = system: Malme-3M; assay: Antiproliferative activity against human MALME-3M cells assessed as growth inhibition after 48 hrs by sulforhodamine B assay; format: functional; conditions: for CC50: read-out: LC50 (the source's name)
[9] = system: SK-MEL-5; assay: Antiproliferative activity against human SK-MEL-5 cells assessed as cell growth at 10^-7 M after 48 hrs by sulforhodamine B assay; format: functional; conditions: SK-MEL-5, 48 h, read-out: Activity
[10] = system: 786-0; assay: Antiproliferative activity against human 786-0 cells assessed as cell growth at 10^-7 M after 48 hrs by sulforhodamine B assay; format: functional; conditions: 786-0, 48 h, read-out: Activity
[11] = Antiproliferative activity against human SNB75 cells assessed as growth inhibition after 48 hrs by sulforhodamine B assay; format: functional; conditions: SNB-75, 48 h; for CC50: read-out: LC50 (the source's name)
[12] = system: NCI-H226; assay: Antiproliferative activity against human NCI-H226 cells assessed as growth inhibition after 48 hrs by sulforhodamine B assay; format: functional; conditions: NCI-H226, 48 h; for CC50: read-out: LC50 (the source's name)
[13] = system: K562; assay: Antiproliferative activity against human K562 cells assessed as growth inhibition after 48 hrs by sulforhodamine B assay; format: functional; conditions: K562, 48 h; for CC50: read-out: LC50 (the source's name)
[14] = system: T47D; assay: Antiproliferative activity against human T47D cells assessed as growth inhibition after 48 hrs by sulforhodamine B assay; format: functional; conditions: for CC50: read-out: LC50 (the source's name)
[15] = system: MDA-MB-468; assay: Antiproliferative activity against human MDA-MB-468 cells assessed as growth inhibition after 48 hrs by sulforhodamine B assay; format: functional; conditions: MDA-MB-468, 48 h; for CC50: read-out: LC50 (the source's name)
[16] = target: RAF proto-oncogene serine/threonine-protein kinase (Homo sapiens, UniProt P04049); assay: Inhibition of human C-RAF measured after 40 mins by scintillation counting
[17] = system: KM12; assay: Antiproliferative activity against human KM12 cells assessed as cell growth at 10^-8 M after 48 hrs by sulforhodamine B assay; format: functional; conditions: KM12, 48 h, read-out: Activity
[18] = Antiproliferative activity against human SW620 cells assessed as cell growth at […] M after 48 hrs by sulforhodamine B assay; format: functional; conditions: SW-620, 48 h, read-out: Activity
[19] = Antiproliferative activity against human SF268 cells assessed as cell growth at 10^-8 M after 48 hrs by sulforhodamine B assay; format: functional; conditions: SF-268, 48 h, read-out: Activity
[20] = Antiproliferative activity against human SNB19 cells assessed as cell growth at 10^-8 M after 48 hrs by sulforhodamine B assay; format: functional; conditions: SNB-19, 48 h, read-out: Activity
[21] = system: K562; assay: Antiproliferative activity against human K562 cells assessed as cell growth at 10^-6 M after 48 hrs by sulforhodamine B assay; format: functional; conditions: K562, 48 h, read-out: Activity
[22] = Antiproliferative activity against human HOP62 cells assessed as cell growth at 10^-6 M after 48 hrs by sulforhodamine B assay; format: functional; conditions: HOP-62, 48 h, read-out: Activity
[23] = Antiproliferative activity against human HOP92 cells assessed as cell growth at 10^-6 M after 48 hrs by sulforhodamine B assay; format: functional; conditions: HOP-92, 48 h, read-out: Activity
[24] = system: HT-29; assay: Antiproliferative activity against human HT-29 cells assessed as cell growth at 10^-6 M after 48 hrs by sulforhodamine B assay; format: functional; conditions: HT-29, 48 h, read-out: Activity
[25] = system: Malme-3M; assay: Antiproliferative activity against human MALME-3M cells assessed as cell growth at 10^-6 M after 48 hrs by sulforhodamine B assay; format: functional; conditions: read-out: Activity
[26] = Antiproliferative activity against human RPMI8226 cells assessed as cell growth at 10^-4 M after 48 hrs by sulforhodamine B assay; format: functional; conditions: RPMI-8226, 48 h, read-out: Activity
[27] = Antiproliferative activity against human HOP92 cells assessed as cell growth at 10^-4 M after 48 hrs by sulforhodamine B assay; format: functional; conditions: HOP-92, 48 h, read-out: Activity
[28] = Antiproliferative activity against human HCT116 cells assessed as cell growth at 10^-4 M after 48 hrs by sulforhodamine B assay; format: functional; conditions: HCT-116, 48 h, read-out: Activity
[29] = Antiproliferative activity against human OVCAR4 cells assessed as cell growth at 10^-8 M after 48 hrs by sulforhodamine B assay; format: functional; conditions: OVCAR-4, 48 h, read-out: Activity
[30] = system: M14; assay: Antiproliferative activity against human M14 cells assessed as cell growth at 10^-6 M after 48 hrs by sulforhodamine B assay; format: functional; conditions: M14, 48 h, read-out: Activity
[31] = Antiproliferative activity against human OVCAR5 cells assessed as cell growth at 10^-6 M after 48 hrs by sulforhodamine B assay; format: functional; conditions: OVCAR-5, 48 h, read-out: Activity
[32] = Antiproliferative activity against human TK10 cells assessed as cell growth at 10^-6 M after 48 hrs by sulforhodamine B assay; format: functional; conditions: TK-10, 48 h, read-out: Activity
[33] = system: SK-MEL-2; assay: Antiproliferative activity against human SK-MEL-2 cells assessed as cell growth at 10^-4 M after 48 hrs by sulforhodamine B assay; format: functional; conditions: SK-MEL-2, 48 h, read-out: Activity
[34] = system: SK-MEL-28; assay: Antiproliferative activity against human SK-MEL-28 cells assessed as cell growth at 10^-4 M after 48 hrs by sulforhodamine B assay; format: functional; conditions: SK-MEL-28, 48 h, read-out: Activity
[35] = Antiproliferative activity against human OVCAR3 cells assessed as cell growth at 10^-4 M after 48 hrs by sulforhodamine B assay; format: functional; conditions: OVCAR-3, 48 h, read-out: Activity
[36] = system: ACHN; assay: Antiproliferative activity against human ACHN cells assessed as cell growth at 10^-4 M after 48 hrs by sulforhodamine B assay; format: functional; conditions: read-out: Activity

RAF proto-oncogene serine/threonine-protein kinase, sequence (P04049 whole entry): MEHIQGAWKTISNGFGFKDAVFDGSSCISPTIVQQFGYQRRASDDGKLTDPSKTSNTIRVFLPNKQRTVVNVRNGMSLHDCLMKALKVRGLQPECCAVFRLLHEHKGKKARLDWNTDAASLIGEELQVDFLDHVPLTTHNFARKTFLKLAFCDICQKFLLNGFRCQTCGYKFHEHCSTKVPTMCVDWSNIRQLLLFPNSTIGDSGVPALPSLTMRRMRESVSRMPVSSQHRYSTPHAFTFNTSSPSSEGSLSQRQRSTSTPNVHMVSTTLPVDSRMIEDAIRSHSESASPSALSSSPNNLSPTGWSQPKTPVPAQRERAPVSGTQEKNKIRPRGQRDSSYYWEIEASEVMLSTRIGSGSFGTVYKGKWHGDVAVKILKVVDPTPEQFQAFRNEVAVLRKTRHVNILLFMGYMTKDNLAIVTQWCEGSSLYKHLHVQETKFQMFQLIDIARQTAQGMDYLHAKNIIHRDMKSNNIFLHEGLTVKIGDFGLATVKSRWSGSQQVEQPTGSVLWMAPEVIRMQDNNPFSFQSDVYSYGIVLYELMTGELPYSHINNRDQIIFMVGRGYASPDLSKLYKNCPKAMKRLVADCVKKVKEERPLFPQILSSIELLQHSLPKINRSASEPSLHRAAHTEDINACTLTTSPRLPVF

Compound: CNC(=O)c1cc(Oc2ccc3nc(NC(=O)Nc4cc(C(F)(F)F)cc(C(F)(F)F)c4)sc3c2)ccn1
- GI50 [1]: 1.67 µM
- TGI [1]: 3.35 µM
- CC50 [1]: 6.72 µM
- GI50 [2]: 1.02 µM
- LC50 (concentration killing 50% of cells) [2]: 5.97 µM
- TGI [2]: 2.47 µM
- growth at 0.1 µM [3]: 114%
- growth at 0.1 µM [4]: 31%
- growth at 0.1 µM [5]: 96%
- growth at 0.1 µM [6]: 95%
- growth at 1 µM [7]: 32%
- GI50 [8]: 0.908 µM
- TGI [8]: 2.49 µM
- CC50 [8]: 6.41 µM
- growth at 0.1 µM [9]: 99%
- growth at 0.1 µM [10]: 99%
- GI50 [11]: 1 µM
- TGI [11]: 2.7 µM
- CC50 [11]: 7.26 µM
- GI50 [12]: 1.45 µM
- TGI [12]: 3.57 µM
- CC50 [12]: 8.79 µM
- GI50 [13]: 0.784 µM
- TGI [13]: 4.86 µM
- CC50 [13]: > 100 µM
- GI50 [14]: 0.479 µM
- TGI [14]: 2.3 µM
- CC50 [14]: 8.47 µM
- GI50 [15]: 0.399 µM
- TGI [15]: 1.75 µM
- CC50 [15]: 6.08 µM
- IC50 [16]: 0.566 µM
- growth at 0.01 µM [17]: 100%
- growth at 0.01 µM [18]: 102%
- growth at 0.01 µM [19]: 97%
- growth at 0.01 µM [20]: 99%
- growth at 1 µM [21]: 44%
- growth at 1 µM [22]: 58%
- growth at 1 µM [23]: -2%
- growth at 1 µM [24]: 61%
- growth at 1 µM [25]: 48%
- growth at 100 µM [26]: -52%
- growth at 100 µM [27]: -77%
- growth at 100 µM [28]: -95%
- growth at 0.01 µM [29]: 88%
- growth at 1 µM [30]: 77%
- growth at 1 µM [31]: 77%
- growth at 1 µM [32]: 87%
- growth at 100 µM [33]: -75%
- growth at 100 µM [34]: -70%
- growth at 100 µM [35]: -89%
- growth at 100 µM [36]: -80%

Compound: CNC(=O)c1cc(Oc2ccc3nc(NC(=O)Nc4ccc(Cl)c(Cl)c4)sc3c2)ccn1
- GI50 [1]: 3.46 µM
- TGI [1]: 9.26 µM
- CC50 [1]: > 100 µM
- GI50 [2]: 2.93 µM
- LC50 (concentration killing 50% of cells) [2]: > 100 µM
- TGI [2]: 6.64 µM
- growth at 0.1 µM [3]: 107%
- growth at 0.1 µM [4]: 102%
- growth at 0.1 µM [5]: 105%
- growth at 0.1 µM [6]: 100%
- growth at 1 µM [7]: 106%
- GI50 [8]: 1.51 µM
- TGI [8]: 3.3 µM
- CC50 [8]: 7.21 µM
- growth at 0.1 µM [9]: 100%
- growth at 0.1 µM [10]: 100%
- GI50 [11]: 1.73 µM
- TGI [11]: 3.61 µM
- CC50 [11]: 7.54 µM
- GI50 [12]: 2.28 µM
- TGI [12]: 4.58 µM
- CC50 [12]: 9.21 µM
- GI50 [13]: > 100 µM
- TGI [13]: > 100 µM
- CC50 [13]: > 100 µM
- GI50 [14]: 2.65 µM
- TGI [14]: 6.36 µM
- CC50 [14]: > 100 µM
- GI50 [15]: 1.97 µM
- TGI [15]: 5.09 µM
- CC50 [15]: > 100 µM
- IC50 [16]: 0.015 µM
- growth at 0.01 µM [17]: 98%
- growth at 0.01 µM [18]: 102%
- growth at 0.01 µM [19]: 96%
- growth at 0.01 µM [20]: 98%
- growth at 1 µM [21]: 98%
- growth at 1 µM [22]: 119%
- growth at 1 µM [23]: 119%
- growth at 1 µM [24]: 106%
- growth at 1 µM [25]: 76%
- growth at 100 µM [26]: 15%
- growth at 100 µM [27]: -66%
- growth at 100 µM [28]: -54%
- growth at 0.01 µM [29]: 93%
- growth at 1 µM [30]: 97%
- growth at 1 µM [32]: 113%
- growth at 100 µM [33]: -48%
- growth at 100 µM [34]: -51%
- growth at 100 µM [35]: -24%
- growth at 100 µM [36]: -18%

Compound: CNC(=O)c1cc(Oc2ccc(NC(=O)Nc3ccc(Cl)c(C(F)(F)F)c3)cc2)ccn1 [SORAFENIB]
- GI50 [1]: 3.98 µM
- TGI [1]: 10 µM
- CC50 [1]: 50.1 µM
- GI50 [2]: 2.51 µM
- TGI [2]: 6.31 µM
- GI50 [8]: 2 µM
- TGI [8]: 6.31 µM
- CC50 [8]: 63.1 µM
- GI50 [11]: 3.16 µM
- TGI [11]: 10 µM
- CC50 [11]: 39.8 µM
- GI50 [12]: 2 µM
- TGI [12]: 7.94 µM
- CC50 [12]: 31.6 µM
- GI50 [13]: 3.16 µM
- TGI [13]: 100 µM
- CC50 [13]: 100 µM
- TGI [14]: 7.94 µM
- CC50 [14]: 31.6 µM
- GI50 [15]: 2 µM
- TGI [15]: 7.94 µM
- CC50 [15]: 39.8 µM
